The source of these data is patent publication US20240158392A1 (Janssen Biotech, Inc., priority 2021, published 2024).

The target in one assay is SIK2 (Homo sapiens, UniProt Q9H0K1). The assay is described as follows: SIK2 Enzymatic Assay High Version 2 (High ATP). It is filed as biochemical.
Chain of SIK2 (Q9H0K1 whole entry, species assumed): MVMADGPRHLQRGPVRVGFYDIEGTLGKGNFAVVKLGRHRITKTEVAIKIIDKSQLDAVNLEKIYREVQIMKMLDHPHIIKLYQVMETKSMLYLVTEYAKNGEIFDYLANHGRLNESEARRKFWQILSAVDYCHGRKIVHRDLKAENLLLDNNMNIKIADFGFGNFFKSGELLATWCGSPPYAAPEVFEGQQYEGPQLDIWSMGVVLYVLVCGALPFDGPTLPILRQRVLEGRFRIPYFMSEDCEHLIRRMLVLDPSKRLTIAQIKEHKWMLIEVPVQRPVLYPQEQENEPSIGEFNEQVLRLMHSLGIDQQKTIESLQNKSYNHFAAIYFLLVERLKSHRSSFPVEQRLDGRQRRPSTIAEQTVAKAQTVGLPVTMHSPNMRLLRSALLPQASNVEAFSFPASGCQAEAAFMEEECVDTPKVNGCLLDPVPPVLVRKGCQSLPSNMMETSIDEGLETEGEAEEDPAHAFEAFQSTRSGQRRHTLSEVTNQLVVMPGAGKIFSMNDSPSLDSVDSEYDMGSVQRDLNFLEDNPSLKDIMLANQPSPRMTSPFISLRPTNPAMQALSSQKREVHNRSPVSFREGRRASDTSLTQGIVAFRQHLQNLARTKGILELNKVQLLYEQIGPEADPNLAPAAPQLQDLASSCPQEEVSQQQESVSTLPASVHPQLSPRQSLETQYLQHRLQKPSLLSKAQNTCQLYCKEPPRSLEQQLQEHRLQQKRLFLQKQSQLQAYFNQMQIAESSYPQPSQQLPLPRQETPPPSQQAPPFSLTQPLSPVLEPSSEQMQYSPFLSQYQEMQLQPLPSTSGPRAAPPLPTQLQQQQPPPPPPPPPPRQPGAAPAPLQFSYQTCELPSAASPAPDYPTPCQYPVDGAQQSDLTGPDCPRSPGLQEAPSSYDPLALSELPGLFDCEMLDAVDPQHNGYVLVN
Details: not given
In outline: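 At room temperature, enzyme (6 nM, 2× final) was preincubated with compound for 30 min, then 6 mM ATP and 400 μM HDAC5tide (both 2× final) were added for 2 h. ADP formed was measured by ADP-Glo Max (2 h reagent, 1 h detection) using luminescence.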
`Cc1cc(-c2ccn3nc(Nc4ccc(C(=O)NCCO)cn4)cc3c2)c(O[C@H]2C[C@H]3COC[C@@H](C2)N3)cn1` [Example 369, N-(2-hydroxyethyl)-6-[[5-[2-methyl-5-[[(1S,5R,7s)-3-oxa-9-azabicyclo[3.3.1]nonan-7-yl]oxy]-4-pyridyl]pyrazolo[1,5-a]pyridin-2-yl]amino]pyridine-3-carboxamide]: the IC50 amounted to 0.00164 µM.

For `CC#Cc1cc(-c2ccn3nc(Nc4ccn(C)n4)cc3c2)c(O[C@H]2C[C@H]3COC[C@@H](C2)N3)cn1` [Example 438, N-(1-methylpyrazol-3-yl)-5-[5-[[(1S,5R)-3-oxa-9-azabicyclo[3.3.1]nonan-7-yl]oxy]-2-prop-1-ynyl-4-pyridyl]pyrazolo[1,5-a]pyridin-2-amine], the IC50 came out at 0.0102 µM.

Still in this assay, the particulars now being: enzyme 6 nM, 6 mM ATP and 400 μM HDAC5tide (each 2× final concentration); 30 minutes pre-incubation, 2 hours; ADP-Glo Max luminescence; read-out: SIK2 high ATP IC50 (μM) (Test Example 2).
`Cc1cc(-c2ccn3nc(Nc4cnc(C(F)F)cn4)cc3c2)c(OC[C@H]2OCC[C@@H]2O)cn1` [Example 295, (2R,3S)-2-[[4-[2-[[5-(difluoromethyl)pyrazin-2-yl]amino]pyrazolo[1,5-a]pyridin-5-yl]-6-methyl-3-pyridyl]oxymethyl]tetrahydrofuran-3-ol]: the half-maximal inhibitory concentration (IC50) turned out to be 0.0176 µM.

With `Cc1cc(Nc2cc3cc(-c4cc(OC(F)F)ncc4OCC4(C#N)CC4)ccn3n2)nc(C)n1` [Example 720, 1-[[6-(difluoromethoxy)-4-[2-[(2,6-dimethylpyrimidin-4-yl)amino]pyrazolo[1,5-a]pyridin-5-yl]-3-pyridyl]oxymethyl]cyclopropanecarbonitrile], the IC50 was 0.00954 µM.

For the compound `CNc1nc(C)cc(Nc2cc3cc(-c4cc(OC(F)F)ncc4OCC(C)(C)C#N)ccn3n2)n1` [Example 676, 3-[[6-(difluoromethoxy)-4-[2-[[6-methyl-2-(methylamino)pyrimidin-4-yl]amino]pyrazolo[1,5-a]pyridin-5-yl]-3-pyridyl]oxy]-2,2-dimethyl-propanenitrile], the IC50 amounted to 0.108 µM.

For the compound `Cc1cc(-c2ccn3nc(NC(=O)C4CC4)cc3c2)c(OC[C@@](C)(O)C(F)(F)F)cn1` (single isomer, unassigned) [Example 189, (*R)—N-(5-(2-methyl-5-(3,3,3-trifluoro-2-hydroxy-2-methylpropoxy)pyridin-4-yl)pyrazolo[1,5-a]pyridin-2-yl)cyclopropanecarboxamide], the IC50 came to 0.0367 µM.

Take `CCNC(=O)c1c(OC)cc(Nc2cc3cc(-c4cc(C)ncc4O[C@H]4CC[C@H](O)CC4)ccn3n2)cc1OC` [Example 243, N-ethyl-4-[[5-[5-(4-hydroxycyclohexoxy)-2-methyl-4-pyridyl]pyrazolo[1,5-a]pyridin-2-yl]amino]-2,6-dimethoxy-benzamide]: the IC50 was determined as 0.0351 µM.

With `Cc1cc(-c2ccn3nc(Nc4cc(C)nc(C(=O)NCC(F)(F)F)n4)cc3c2)c(OCC(C)(C)O)cn1` [Example 644, 4-[[5-[5-(2-hydroxy-2-methyl-propoxy)-2-methyl-4-pyridyl]pyrazolo[1,5-a]pyridin-2-yl]amino]-6-methyl-N-(2,2,2-trifluoroethyl)pyrimidine-2-carboxamide], the IC50 is 0.0734 µM.

As to `Cc1cc(Nc2cc3cc(-c4cc(C)ncc4OCC(C)(C)O)ccn3n2)nc(C(=O)N(C)C)c1` [Example 244, 6-[[5-[5-(2-hydroxy-2-methyl-propoxy)-2-methyl-4-pyridyl]pyrazolo[1,5-a]pyridin-2-yl]amino]-N,N,4-trimethyl-pyridine-2-carboxamide], the IC50 came to 0.0218 µM.

In the case of `Cc1cc(-c2ccn3nc(NC(=O)C4CC4)cc3c2)c(OC[C@@]23CN[C@@H](CO2)C3)cn1` [Example 248, N-[5-[2-methyl-5-[[(1R,4R)-5-oxa-2-azabicyclo[2.2.1]heptan-4-yl]methoxy]-4-pyridyl]pyrazolo[1,5-a]pyridin-2-yl]cyclopropanecarboxamide], the half-maximal inhibitory concentration (IC50) was 0.00712 µM.

Turning to `Cc1cc(-c2ccn3nc(Nc4cc(C)nc(C)n4)cc3c2)c(OC[C@H]2CCO[C@H]2C)cn1` (single isomer, unassigned) [Example 206, N-(2,6-dimethylpyrimidin-4-yl)-5-(2-methyl-5-(((2*S,3*R)-2-methyltetrahydrofuran-3-yl)methoxy)pyridin-4-yl)pyrazolo[1,5-a]pyridin-2-amine], the IC50 stood at 0.0175 µM.
